Measured values as given in article PMC10610214 (Pharmaceuticals, 2023).

Legend:
[1] = test system: adjuvant-induced arthritis (AIA) rats; set-up: method as in PMID 36450214; conditions: cited from earlier work
H2O2-induced PC12 cells = test: Neuroprotection against H2O2-induced PC12 cell injury (MTT); format: cell-based; conditions: H2O2 250 μM, mean ± SEM
Method: Neuroprotection assay is similar to cytotoxicity. Oxidative cellular damage caused by H2O2 has become one of the important methods to study oxidative damage in neural cells. PC12 cells were seeded into a 96-well plate at a density of 5.0 × 10^3 cells per well. After the cells were incubated overnight, the old medium was discarded. […] After incubating overnight, 20 μL of MTT solution (5 mg/mL, Sigma-Aldrich) was added per well, and the cells were incubated for an additional 4 h. Afterwards, the supernatant was removed and 150 μL of DMSO was added. The 96-well plate was placed on the shaker for 10–15 min, and then the absorbance at 492 nm was measured by a microplate reader.

PC12 cells = test: Cytotoxicity in PC12 cells (MTT); format: cell-based
Method: The cytotoxicity and neuroprotective effects of the compounds on PC12 cells were evaluated by MTT assay. PC12 cells were seeded into a 96-well plate at a density of 5.0 × 10^3 cells per well. After the cells were incubated overnight, the old medium was discarded. The cells were incubated for another 24 h with fresh medium containing compounds at a concentration of 30 or 50 μM. A total of 20 μL of MTT solution (5 mg/mL, Sigma-Aldrich, Shanghai, China) was then added per well, and the cells were incubated for an additional 4 h. Afterwards, the supernatant was removed and 150 μL of DMSO was added to solubilize formazan crystals. The 96-well plate was placed on the shaker for 10–15 min, and then the absorbance at 492 nm was measured by a microplate reader.

AChE (from electric eel) = target: T1, AChE (from electric eel) (Electrophorus electricus, UniProt O42275); test: biochemical; conditions: AChE from electric eel; mean ± SD of three experiments; read-out: AChE Inhibition (IC50)
T1 construct: AChE (from electric eel); purchased Sigma Chemical Company (St. Louis, MO, USA)
Method: (§1) The ChE inhibitory activity of the test compounds was determined using the modified Ellman’s method. The compounds were dissolved in DMSO (10 mmol/L) and then diluted with PB (phosphate buffer) solution to attain a range of final concentrations. […] Briefly, 100 μL of different concentrations of the test or standard compounds and 100 μL of AChE/BuChE (0.5 U/mL) were added into 48-well plates and then co-incubated at 37 °C for 30 min. […] All concentrations mentioned are final.

[2] = target: T2, BuChE (from equine serum) (Equus caballus, UniProt P81908); test: biochemical; conditions: mean ± SD of three experiments, read-out: BuChE Inhibition (IC50)
T2 construct: BuChE (from equine serum); purchased Sigma Chemical Company (St. Louis, MO, USA); host or cells: equine serum
Method: as §1

DPPH radical scavenging = format: physicochemical; conditions: vs no-compound group
Method: DPPH is a commercially available stable organic nitrogen radical with maximum UV absorption at 515 nm. After reduction, the color of the solution fades (absorbance decreases). Therefore, this method was used to evaluate the antioxidant capacity of the compounds. In short, 50 μL of DPPH (140 μM) and 50 μL of different concentrations (10, 100, and 1000 μM) of compound 4h were added together in a 96-well plate and then incubated in the dark at 37 °C for 2 h. The absorbance was measured at 515 nm through the multifunctional microplate reader. The scavenging rate (SR) of DPPH radicals was calculated by the following formula: SR = (1 − Ac/A0) × 100%, where “Ac” is the absorbance of DPPH and the compound solution incubating, and “A0” is the absorbance of the DPPH radical-ethanol solution alone. The experimental results are expressed as the average of three tests.

Aβ1-42 = Aβ1-42 (Homo sapiens, UniProt P05067); test: Self-induced Aβ1-42 aggregation, thioflavin T fluorescence; format: biochemical; set-up: final concentrations of 20 μM of Aβ1-42 and 100 μM of test compound; purchased Beyotime Institute of Biotechnology; conditions: read-out: Inhibition of Self-Induced Aβ Aggregation (%)
Method: The inhibitory effect of compounds on Aβ42 was determined by Thioflavin T (ThT) fluorescence assay. In short, the dilution of Aβ42 solution (Beyotime Biotechnology, Hang Zhou, China) and test compounds was carried out with phosphate buffer (50 mM, pH 7.4) to obtain final concentrations of 20 μM of Aβ1-42 and 100 μM of test compound, such as curcumin (20 μM). The mixture was incubated in 96-well plates at room temperature for 48 h in the dark. When the incubation was complete, the samples were diluted to 200 µL (final volume) with glycine–NaOH buffer (50 mM, pH 8.0) containing 5 μM ThT.

BuChE = target: T3, BuChE (Equus caballus, UniProt P81908); test: Reversibility of BuChE inhibition, dilution method; format: biochemical; conditions: control 100
T3 construct: BuChE (from equine serum); purchased Sigma Chemical Company (St. Louis, MO, USA); host or cells: equine serum
Method: The activities of the diluted residual enzymes were measured by Ellman’s modified method.
Reversibility studies were performed using a modified Ellman’s dilution method to measure the activity of the diluted residual enzyme. The AChE/BuChE (0.5 U/mL), ATCI/BTCI (0.01 M) and DTNB (0.01 M) were diluted with phosphate buffer pH = 7.4. […] At the end of incubation, 20 μL of DTNB solution was added to them. […] All the measured results are expressed as the mean ± SEM of the three independent experiments.

in vitro = in vitro ADME, SD rats; conditions: SD rat liver microsomes
Method: The incubation was terminated at different time points by adding 0.5 mL of ice-cold CH3CN. A parallel incubation was performed in the absence of a NADPH-regenerating system with microsomes as the negative control, and the reactions were terminated after the corresponding time incubation. After centrifugation with 12,500 rpm at 4 °C for 10 min, the supernatant was directly analyzed by the HPLC UV systems (Agilent HPLC 1200 instrument). Three independent experiments were performed in triplicate.

SY5Y cells = test: H2O2-induced intracellular ROS in SY5Y cells (DCFH-DA); format: cell-based; conditions: 100 μM, vs untreated control 100, H2O2 group 151.76
Method: A 2’, 7’-dichlorofluorescein diacetate (DCFH-DA, Sigma Aldrich) probe was applied to determine intracellular ROS production. It can penetrate cells and be rapidly oxidized by intracellular ROS to highly fluorescent 2′,7′-dichlorofluorescein (DCF). Intracellular fluorescence intensity is proportional to intracellular ROS levels. PC12 cells or SY5Y cells were seeded into a black 96-well plate at a density of 1.0 × 10^4 cells per well. After the cells were incubated overnight, the old medium was discarded. PC12 cells or SY5Y cells were cultured in a medium containing test compound 4h with or without various concentrations (1, 7.5, 15, 30, and 50 μM) for 6 h. […] Then, they were washed again with PBS, then DCFH-DA […] probe was added to each well and incubated at 37 °C for 1 h. After the cells were washed 3 times, the fluorescence intensity was measured in a Synergy HTX fluorescence microplate reader (λex = 485 nm, λem = 528 nm).

Chain of Aβ1-42 (P05067 672-713 limits assumed): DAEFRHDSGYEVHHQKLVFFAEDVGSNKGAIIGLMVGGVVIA
T3 sequence (P81908 whole entry): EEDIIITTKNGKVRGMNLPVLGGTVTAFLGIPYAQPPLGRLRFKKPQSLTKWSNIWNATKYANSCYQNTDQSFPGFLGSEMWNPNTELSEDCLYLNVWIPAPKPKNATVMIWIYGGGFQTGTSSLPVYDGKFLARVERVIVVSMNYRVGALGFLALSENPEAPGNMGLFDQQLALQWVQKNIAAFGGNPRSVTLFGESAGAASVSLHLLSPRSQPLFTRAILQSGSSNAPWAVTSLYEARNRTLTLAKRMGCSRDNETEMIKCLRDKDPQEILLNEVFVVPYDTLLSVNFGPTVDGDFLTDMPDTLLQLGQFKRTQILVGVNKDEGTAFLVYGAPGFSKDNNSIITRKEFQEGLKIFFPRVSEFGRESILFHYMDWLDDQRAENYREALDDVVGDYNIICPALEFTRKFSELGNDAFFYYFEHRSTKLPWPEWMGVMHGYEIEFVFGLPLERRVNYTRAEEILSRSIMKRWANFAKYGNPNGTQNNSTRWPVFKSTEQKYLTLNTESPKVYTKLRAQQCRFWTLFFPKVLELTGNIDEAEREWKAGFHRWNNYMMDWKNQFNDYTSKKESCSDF
T1 sequence (O42275 24-633): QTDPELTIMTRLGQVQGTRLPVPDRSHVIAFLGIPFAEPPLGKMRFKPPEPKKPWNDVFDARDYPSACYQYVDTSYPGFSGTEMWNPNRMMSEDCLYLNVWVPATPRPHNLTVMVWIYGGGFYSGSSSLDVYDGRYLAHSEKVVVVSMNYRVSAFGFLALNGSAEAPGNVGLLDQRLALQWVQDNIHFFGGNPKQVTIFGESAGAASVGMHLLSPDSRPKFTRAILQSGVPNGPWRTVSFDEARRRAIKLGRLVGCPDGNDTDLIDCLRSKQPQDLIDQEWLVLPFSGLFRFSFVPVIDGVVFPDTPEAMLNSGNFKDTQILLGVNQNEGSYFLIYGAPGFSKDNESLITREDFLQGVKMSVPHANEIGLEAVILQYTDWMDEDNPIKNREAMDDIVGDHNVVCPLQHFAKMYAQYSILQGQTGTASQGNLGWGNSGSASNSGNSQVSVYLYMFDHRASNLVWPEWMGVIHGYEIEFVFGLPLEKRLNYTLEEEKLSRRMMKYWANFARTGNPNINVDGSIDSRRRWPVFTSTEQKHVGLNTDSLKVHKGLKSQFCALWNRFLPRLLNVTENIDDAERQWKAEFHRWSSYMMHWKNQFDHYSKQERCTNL
T2 sequence (P81908 whole entry): as the sequence (P81908 whole entry) above

## COc1ccc(S(=O)(=O)Nc2ccc3nc4n(c(=O)c3c2)-c2ccccc2C4=O)cc1 [8j]
[1]
  Anti-inflammatory activity in the AIA model: exhibited good anti-inflammatory activity in the AIA model
H2O2-induced PC12 cells; compound 10 μM
  H2O2-Induced PC12 Cell Viability (% of Control): 38.02 ± 3.1 % of Control
H2O2-induced PC12 cells; compound 30 μM
  H2O2-Induced PC12 Cell Viability (% of Control): 47.36 ± 6.1 % of Control
PC12 cells; compound 30 μM
  Cell Viability (% of Control): 99.9 ± 1.5 % of Control
PC12 cells; compound 50 μM
  Cell Viability (% of Control): 98.9 ± 2.1 % of Control
AChE (from electric eel)
  IC50: > 50 µM
[2]
  IC50: 10.2 ± 2.41 µM

## O=C1O[C@H]([C@@H](O)CO)C(O)=C1O [AA, Ascorbic acid, reference compound]
DPPH radical scavenging; 10 μM compound
  Concentration of DPPH (%): 77.43 ± 2.76%
DPPH radical scavenging; 100 μM compound
  Concentration of DPPH (%): 58.10 ± 3.42%
DPPH radical scavenging; 1000 μM compound
  Concentration of DPPH (%): 24.2 ± 1.85%

## COc1cc(/C=C/C(=O)CC(=O)/C=C/c2ccc(O)c(OC)c2)ccc1O [Curcumin]
Aβ1-42; curcumin 20 μM (text b32), ThT, 48 h
  inhibition at 20 µM: 55.4 ± 2.31%

## COc1cc2c(cc1OC)C(=O)C(CC1CCN(Cc3ccccc3)CC1)C2 (centres unmarked) [Donepezil, reference compound]
BuChE; final inhibitor 0.1 × IC50 after 100-fold dilution
  BuChE activity after dilution (reversibility): 94.1 ± 0.61
BuChE; final inhibitor 1 × IC50 after 100-fold dilution
  BuChE activity after dilution (reversibility): 89.4 ± 1.49
Aβ1-42
  inhibition at 100 µM: 41.2 ± 1.87%

## C[C@]12CC[C@H]3[C@@H](CCC4=CC(=O)CC[C@@]43C)[C@@H]1CC[C@@H]2O [Testosterone, reference compound]
In vitro
  K: 0.2593 ± 0.04409 min⁻¹
  T1/2: 2.4 ± 0.5 min

## Cc1c(C)c2c(c(C)c1O)CCC(C)(C(=O)O)O2 (centres unmarked) [Trolox]
SY5Y cells
  ROS in SY5Y cells (%): 126.06 ± 2.68%
